Experimental data published in patent US9670227B2, “Thienopyrimidine derivatives, a process for their preparation and pharmaceutical compositions containing them” (LES LABORATOIRES SERVIER, priority 2013, dated 2017).

How the values were obtained:
[1] = biological target: Mcl-1 protein (UniProtKB primary accession number: Q07820) (Homo sapiens, UniProt Q07820); assay: Inhibition of Mcl-1 by fluorescence polarisation, Method 1; type: binding; conditions: fluorescence polarisation; Method 1, or Method 2; read-out: IC50 (M) Mcl-1 FP
Chain of Mcl-1 protein (Q07820 whole entry): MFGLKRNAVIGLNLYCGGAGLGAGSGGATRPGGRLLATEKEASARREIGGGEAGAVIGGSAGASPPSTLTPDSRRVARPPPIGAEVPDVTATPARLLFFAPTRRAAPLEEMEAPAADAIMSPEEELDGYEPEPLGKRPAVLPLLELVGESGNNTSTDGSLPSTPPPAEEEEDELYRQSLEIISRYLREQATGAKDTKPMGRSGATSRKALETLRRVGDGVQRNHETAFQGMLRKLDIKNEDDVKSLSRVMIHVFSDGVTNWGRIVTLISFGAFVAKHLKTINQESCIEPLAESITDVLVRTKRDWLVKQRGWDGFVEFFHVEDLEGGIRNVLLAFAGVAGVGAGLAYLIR
Method in brief: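 Compounds were tested as 11-point serial dilutions at 5% final DMSO against 5 nM Mcl-1 with 1 nM fluorescein-labelled ligand in 10 mM HEPES, 150 mM NaCl, 0.05% Tween 20, pH 7.4. Relative binding potency was read by fluorescence polarisation.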

[2] = tested on: H929 multiple myeloma tumour line; assay: In vitro cytotoxicity, Microculture Tetrazolium Assay; type: cell-based; conditions: Homo sapiens, NCI-H929, 48 h, H929 cells, 48 hours exposure, MTT; read-out: IC50 (μM) MTT H929
Experimental: The cytotoxicity studies were carried out on the H929 multiple myeloma tumour line.
The cells are distributed onto microplates and exposed to the test compounds for 48 hours.

| SMILES | IC50 [1] | IC50 [2] |
| --- | --- | --- |
| COc1ccccc1CC(Oc1ncnc2sc(-c3ccc(C)o3)c(-c3ccc(OCCN4CCN(C)CC4)c(Cl)c3C)c12)C(=O)O [Example 541, (2R)-2-{[(5Sa)-5-{3-chloro-2-methyl-4-[2-(4-methylpiperazin-1-yl)ethoxy]phenyl}-6-(5-methylfuran-2-yl)thieno[2,3-d]pyrimidin-4-yl]oxy}-3-(2-methoxyphenyl)propanoic acid] | 2.9e-08 M | 0.329 µM |
| COc1ccc(-c2sc3ncnc(OC(Cc4ccccc4OC)C(=O)O)c3c2-c2ccc(OCCN3CCN(C)CC3)c(Cl)c2C)o1 [Example 544, (2R)-2-{[(5Sa)-5-{3-chloro-2-methyl-4-[2-(4-methylpiperazin-1-yl)ethoxy]phenyl}-6-(5-methoxyfuran-2-yl)thieno[2,3-d]pyrimidin-4-yl]oxy}-3-(2-methoxyphenyl)propanoic acid] | 1.4e-08 M | 0.274 µM |
| COc1ccccc1CC(Oc1ncnc2sc(-c3cccc([N+](=O)[O-])c3)c(-c3ccc(OCCN4CCN(C)CC4)c(Cl)c3C)c12)C(=O)O [Example 545, (2R)-2-{[(5Sa)-5-{3-chloro-2-methyl-4-[2-(4-methylpiperazin-1-yl)ethoxy]phenyl}-6-(3-nitrophenyl)thieno[2,3-d]pyrimidin-4-yl]oxy}-3-(2-methoxyphenyl)propanoic acid] | 3.9e-08 M | 1.1 µM |
| COc1ccccc1CC(Oc1ncnc2sc(-c3cccc(C)c3)c(-c3ccc(OCCN4CCN(C)CC4)c(Cl)c3C)c12)C(=O)O [Example 546, (2R)-2-{[(5Sa)-5-{3-chloro-2-methyl-4-[2-(4-methylpiperazin-1-yl)ethoxy]phenyl}-6-(3-methylphenyl)thieno[2,3-d]pyrimidin-4-yl]oxy}-3-(2-methoxyphenyl)propanoic acid] | 1.7e-08 M | 0.416 µM |
| C#Cc1cccc(-c2sc3ncnc(OC(Cc4ccccc4OC)C(=O)O)c3c2-c2ccc(OCCN3CCN(C)CC3)c(Cl)c2C)c1 [Example 547, (2R)-2-{[(5Sa)-5-{3-chloro-2-methyl-4-[2-(4-methylpiperazin-1-yl)ethoxy]phenyl}-6-(3-ethynylphenyl)thieno[2,3-d]pyrimidin-4-yl]oxy}-3-(2-methoxyphenyl)propanoic acid] | 3.3e-08 M | 0.475 µM |
| COc1ccccc1CC(Oc1ncnc2sc(-c3cccc(N(C)C)c3)c(-c3ccc(OCCN4CCN(C)CC4)c(Cl)c3C)c12)C(=O)O [Example 552, (2R)-2-[((5Sa)-5-{3-chloro-2-methyl-4-[2-(4-methylpiperazin-1-yl)ethoxy]phenyl}-6-[3-(dimethylamino)phenyl]thieno[2,3-d]pyrimidin-4-yl)oxy]-3-(2-methoxyphenyl)propanoic acid] | 4.1e-08 M | 0.784 µM |
| COc1cccc(-c2sc3ncnc(OC(Cc4ccccc4OC)C(=O)O)c3c2-c2ccc(OCCN3CCN(C)CC3)c(Cl)c2C)c1 [Example 554, (2R)-2-{[(5Sa)-5-{3-chloro-2-methyl-4-[2-(4-methylpiperazin-1-yl)ethoxy]phenyl}-6-(3-methoxyphenyl)thieno[2,3-d]pyrimidin-4-yl]oxy}-3-(2-methoxyphenyl)propanoic acid] | 2.4e-08 M | 0.177 µM |
| CCOc1cccc(-c2sc3ncnc(OC(Cc4ccccc4OC)C(=O)O)c3c2-c2ccc(OCCN3CCN(C)CC3)c(Cl)c2C)c1 [Example 557, (2R)-2-{[(5Sa)-5-{3-chloro-2-methyl-4-[2-(4-methylpiperazin-1-yl)ethoxy]phenyl}-6-(3-ethoxyphenyl)thieno[2,3-d]pyrimidin-4-yl]oxy}-3-(2-methoxyphenyl)propanoic acid] | 4.5e-09 M | 0.475 µM |
| COc1ccccc1CC(Oc1ncnc2sc(-c3cccc(SC)c3)c(-c3ccc(OCCN4CCN(C)CC4)c(Cl)c3C)c12)C(=O)O [Example 558, (2R)-2-[((5Sa)-5-{3-chloro-2-methyl-4-[2-(4-methylpiperazin-1-yl)ethoxy]phenyl}-6-[3-(methylsulfanyl)phenyl]thieno[2,3-d]pyrimidin-4-yl)oxy]-3-(2-methoxyphenyl)propanoic acid] | 5.9e-08 M | 0.742 µM |
| COc1ccccc1CC(Oc1ncnc2sc(-c3cccc(F)c3F)c(-c3ccc(OCCN4CCN(C)CC4)c(Cl)c3C)c12)C(=O)O [Example 560, (2R)-2-{[(5Sa)-5-{3-chloro-2-methyl-4-[2-(4-methylpiperazin-1-yl)ethoxy]phenyl}-6-(2,3-difluorophenyl)thieno[2,3-d]pyrimidin-4-yl]oxy}-3-(2-methoxyphenyl)propanoic acid] | 1.1e-08 M | 0.128 µM |
| COc1ccccc1CC(Oc1ncnc2sc(-c3ccccc3)c(-c3ccc(OCCN4CCN(C)CC4)c(Cl)c3C)c12)C(=O)O [Example 564, (2R)-2-[((5Sa)-5-{3-chloro-2-methyl-4-[2-(4-methylpiperazin-1-yl)ethoxy]phenyl}-6-phenylthieno[2,3-d]pyrimidin-4-yl)oxy]-3-(2-methoxyphenyl)propanoic acid] | 8.5e-10 M | 0.202 µM |
| COc1ccccc1CC(Oc1ncnc2sc(-c3ccsc3)c(-c3ccc(OCCN4CCN(C)CC4)c(Cl)c3C)c12)C(=O)O [Example 568, (2R)-2-{[(5Sa)-5-{3-chloro-2-methyl-4-[2-(4-methylpiperazin-1-yl)ethoxy]phenyl}-6-(thiophen-3-yl)thieno[2,3-d]pyrimidin-4-yl]oxy}-3-(2-methoxyphenyl)propanoic acid] | 2.5e-08 M | 0.22 µM |
| COc1ccccc1CC(Oc1ncnc2sc(-c3cnco3)c(-c3ccc(OCCN4CCN(C)CC4)c(Cl)c3C)c12)C(=O)O [Example 569, (2R)-2-{[(5Sa)-5-{3-chloro-2-methyl-4-[2-(4-methylpiperazin-1-yl)ethoxy]phenyl}-6-(1,3-oxazol-5-yl)thieno[2,3-d]pyrimidin-4-yl]oxy}-3-(2-methoxyphenyl)propanoic acid] | 3.9e-08 M | 1.73 µM |

Continued, in another order:

| IC50 [1] | SMILES | IC50 [2] |
| --- | --- | --- |
| 4.2e-08 M | CCc1ccc(-c2sc3ncnc(OC(Cc4ccccc4OC)C(=O)O)c3c2-c2ccc(OCCN3CCN(C)CC3)c(Cl)c2C)o1 [Example 543, (2R)-2-{[(5Sa)-5-{3-chloro-2-methyl-4-[2-(4-methylpiperazin-1-yl)ethoxy]phenyl}-6-(5-ethylfuran-2-yl)thieno[2,3-d]pyrimidin-4-yl]oxy}-3-(2-methoxyphenyl)propanoic acid] | 0.766 µM |
| 1.8e-08 M | COc1ccccc1CC(Oc1ncnc2sc(-c3cccc(C#N)c3)c(-c3ccc(OCCN4CCN(C)CC4)c(Cl)c3C)c12)C(=O)O [Example 548, (2R)-2-{[(5Sa)-5-{3-chloro-2-methyl-4-[2-(4-methylpiperazin-1-yl)ethoxy]phenyl}-6-(3-cyanophenyl)thieno[2,3-d]pyrimidin-4-yl]oxy}-3-(2-methoxyphenyl)propanoic acid] | 0.497 µM |
| 1.3e-07 M | COc1ccccc1CC(Oc1ncnc2sc(-c3cccc(C(F)(F)F)c3)c(-c3ccc(OCCN4CCN(C)CC4)c(Cl)c3C)c12)C(=O)O [Example 549, (2R)-2-[((5Sa)-5-{3-chloro-2-methyl-4-[2-(4-methylpiperazin-1-yl)ethoxy]phenyl}-6-[3-(trifluoromethyl)phenyl]thieno[2,3-d]pyrimidin-4-yl)oxy]-3-(2-methoxyphenyl)propanoic acid] | 1.5 µM |
| 1.1e-08 M | COc1ccccc1CC(Oc1ncnc2sc(-c3cccc(O)c3)c(-c3ccc(OCCN4CCN(C)CC4)c(Cl)c3C)c12)C(=O)O [Example 553, (2R)-2-{[(5Sa)-5-{3-chloro-2-methyl-4-[2-(4-methylpiperazin-1-yl)ethoxy]phenyl}-6-(3-hydroxyphenyl)thieno[2,3-d]pyrimidin-4-yl]oxy}-3-(2-methoxyphenyl)propanoic acid] | 0.585 µM |
| 5.2e-09 M | COc1ccccc1CC(Oc1ncnc2sc(-c3cccc(Cl)c3F)c(-c3ccc(OCCN4CCN(C)CC4)c(Cl)c3C)c12)C(=O)O [Example 559, (2R)-2-{[6-(3-chloro-2-fluorophenyl)-(5Sa)-5-{3-chloro-2-methyl-4-[2-(4-methylpiperazin-1-yl)ethoxy]phenyl}thieno[2,3-d]pyrimidin-4-yl]oxy}-3-(2-methoxyphenyl)propanoic acid] | 0.293 µM |
| 2.7e-08 M | COc1ccccc1CC(Oc1ncnc2sc(-c3cccc(OC)c3F)c(-c3ccc(OCCN4CCN(C)CC4)c(Cl)c3C)c12)C(=O)O [Example 561, (2R)-2-{[(5Sa)-5-{3-chloro-2-methyl-4-[2-(4-methylpiperazin-1-yl)ethoxy]phenyl}-6-(2-fluoro-3-methoxyphenyl)thieno[2,3-d]pyrimidin-4-yl]oxy}-3-(2-methoxyphenyl)propanoic acid] | 0.61 µM |
| 7.4e-08 M | COc1ccccc1CC(Oc1ncnc2sc(-c3cccc4occc34)c(-c3ccc(OCCN4CCN(C)CC4)c(Cl)c3C)c12)C(=O)O [Example 563, (2R)-2-{[6-(1-benzofuran-4-yl)-(5Sa)-5-{3-chloro-2-methyl-4-[2-(4-methylpiperazin-1-yl)ethoxy]phenyl}thieno[2,3-d]pyrimidin-4-yl]oxy}-3-(2-methoxyphenyl)propanoic acid] | 1.16 µM |
| 4.8e-07 M | COc1ccccc1CC(Oc1ncnc2sc(-c3ccccc3Cl)c(-c3ccc(OCCN4CCN(C)CC4)c(Cl)c3C)c12)C(=O)O [Example 565, (2R)-2-{[(5Sa)-5-{3-chloro-2-methyl-4-[2-(4-methylpiperazin-1-yl)ethoxy]phenyl}-6-(2-chlorophenyl)thieno[2,3-d]pyrimidin-4-yl]oxy}-3-(2-methoxyphenyl)propanoic acid] | 1.96 µM |
